{"source": "patent US11289729B2", "about": "“Redox flow batteries and compounds for battery application” (THE TRUSTEES OF COLUMBIA UNIVERSITY IN THE CITY OF NEW YORK, priority 2017, dated 2022)", "key": {"[1]": {"assay": "Stability of charged spiro and cyclopropenium compounds on storage", "assay_type": "physicochemical", "source_text": "The state of charge on discharge was 87%. […] Additionally, the calendar fade of the molecule was improved over certain previously reported high voltage organic radicals."}, "[2]": {"assay": "Crossover of active molecules through the cellulose dialysis membrane in an H-cell (UV-Vis)", "assay_type": "physicochemical", "protocol": "The present example tested whether the membrane is amenable to large temperature excursions and to higher-voltage second generation compounds. The membrane was exposed to high (110° C.) and low (−20° C.) temperatures, as well as to strong reducing and oxidizing conditions, after which, dialysis was performed. Details are disclosed below. For example, the membrane was soaked in a solution of sodium naphthalenide (approximately −3.0 V vs Fc^0/+) and subsequently assembled an H-cell with this membrane. One chamber of the H-cell was filled with [PDI][TFSI]2 in acetonitrile (FIG. 1), while the other contained pure acetonitrile. [PDI][TFSI]2 was used for crossover experiments due to its smaller sized and strong absorption. […] Moreover, typical aqueous cells would not be operable at these extreme temperatures.\nThe present example next quantitatively assessed the impact of these treatments on the membrane's performance under battery operating conditions. […] To quantify the amount of crossover, UV-Vis spectra of the [Fc4] chamber was taken. […] Additionally, the low concentration cell above (FIG. 7D) was dismantled after cycling and checked for crossover. […] The key finding is that the cellulose based membrane is effective in organic solvents over long periods of time, stable to a >3 V voltage window, and stable to temperatures outside the range available for aqueous systems.\nThe membranes were soaked in water for 1 h before treatment. For high temperature, the membrane was rinsed with propylene carbonate, placed in propylene carbonate and heated to 110° C. overnight in a vial. For low temperature, the membrane was rinsed with acetonitrile and placed in acetonitrile in a vial in a −20° C. freezer overnight. For oxidizing conditions, the membrane was rinsed with acetonitrile and stirred in nitrosonium tetrafluoroborate (NOBF4, 0.1 M in acetonitrile) for 4 h. For reducing conditions, the membrane was rinsed with anhydrous diglyme, placed in anhydrous diglyme, and sparged for 3 h before being brought into a glove box. It was rinsed in a fresh solution of diglyme before being added to a solution of sodium naphthalenide (0.1 M in diglyme) in a glove box for 1 h. The sodium naphthalenide was a persistent dark green the entire time indicating no quenching of the reagent. A control where the membrane was only soaked in water and rinsed with acetonitrile was also performed.\nFollowing these conditions, [PDI][TFSI]2 (20 mg) and LiPF6 (60 mg) in acetonitrile were added to one side of the H-cell. […] The blank side was colorless for all conditions except nitrosonium tetrafluoroborate, where a minimal amount of fluorescence could be seen. The control H-cell was monitored for crossover for a further 12 days, at which point the absorbance was measured by UV-visible spectroscopy and the amount determined using the molar absorptivity of [PDI][TFSI]2 (0.05% over 12 days, FIG. 10 and FIG. 11).\nAfter these qualitative experiments, membranes treated to the same four conditions as mentioned above were brought into the glovebox in degassed anhydrous solvent and used for cycling experiments with 19 mg [PDI][TFSI]2 and 9 mg [Fc4] in 0.5M LiPF6 (FIG. 9C). The cells were run at a 1 C current (0.7 mA) for 12 cycles. At the end of the experiment, the UV-visible spectrum was taken of the [Fc4] side. […]"}, "[3]": {"assay": "Solubility / maximum concentration of the electrolytes in organic solvent"}, "[4]": {"conditions": "acetonitrile vs pure acetonitrile, stirring overnight"}, "[5]": {"conditions": "cycling H-cell, 1 C, 12 cycles, 0.5 M LiPF6, UV-Vis of [Fc4] side"}}, "note": "Values joined by “and” are separate entries in the source; they are usually repeats but may differ in a detail not shown here. Identical values can stand only once.", "data": [{"substance": "dimethylpiperidine cyclopropenium", "values": [{"measurement": "persistence of charged state", "setting": "[1]; 3 months out of glovebox", "value": "still charged"}]}, {"substance": "spiro-ethylphthalimide [spirophthalimide]", "values": [{"measurement": "degradation in charged state (1H NMR)", "setting": "[1]; 1 week of charge", "value": "No degradation"}]}, {"substance": "perylene diimide trifluoromethane sulfonimide [[PDI][TFSI]2]", "values": [{"measurement": "visible crossover, NOBF4-treated membrane", "setting": "[2]; [4]", "value": "slight fluorescence from crossover"}, {"measurement": "visible crossover, sodium naphthalenide-treated membrane", "setting": "[2]; [4]", "value": "no detectable crossover"}, {"measurement": "crossover, control membrane", "setting": "[2]; control H-cell, acetonitrile with LiPF6, over 12 days", "value": 0.05, "unit": "%"}, {"measurement": "crossover, NOBF4-treated (oxidizing) membrane", "setting": "[2]; [5]", "value": 1.25, "unit": "%"}, {"measurement": "crossover, cold (−20° C.) treated membrane", "setting": "[2]; [5]", "value": "< 0.05% and 0.032%"}, {"measurement": "crossover, hot (110° C.) treated membrane", "setting": "[2]; [5]", "value": "< 0.05% and 0.028%"}, {"measurement": "crossover, sodium naphthalenide-treated (reducing) membrane", "setting": "[2]; [5]", "value": "< 0.05% and 0.038%"}, {"measurement": "crossover after long-term cycling", "setting": "[2]; low concentration cell dismantled after >30 days and >250 cycles", "value": 0.2, "unit": "%"}, {"measurement": "concentration accessible in acetonitrile", "setting": "[3]", "value": 1, "unit": "M electron"}]}]}
